Measurements from patent US12173088B2, “Anti-microbial peptides” (priority 2018, dated 2024).
Values after ≈ are worked out from the molar mass of the structure shown. Peptide text beside a SMILES is read from it.

Key:
K. pneumoniae ATCC 13883 = format: cell-based, Klebsiella pneumoniae; conditions: ATCC 13883
Procedure: (§1) The antibacterial activity of peptides was evaluated using a standard broth microdilution protocol with minor modifications as described (Mishra, et al. (2012) J. Am. Chem. Soc., 134:12426-12429). In brief, logarithmic phase bacterial cultures (i.e., optical density at 600 nm≈0.5) were diluted to OD600 0.001 and partitioned into a 96-well polystyrene microplate at 90 μL per well. After treatment with 10 μL of peptide solutions two fold diluted to various concentrations, microplates were incubated at 37° C. overnight and read on a ChroMate® 4300 Microplate Reader at 630 nm (GMI, Ramsey, MN). […] To study the influence of medium conditions on the antimicrobial activity of peptides against S. aureus USA300, up to 200 mM sodium chloride (NaCl), 2 mM of calcium chloride, 5-10% of human serum, mouse plasma, fluid, or supernatants of tissue homogenates were included into the assays.
(§2) The bacterial strains used include the Gram-positive bacteria methicillin-resistant Staphylococcus aureus USA300, Enterococcus faecium V286-17 (VRE), S. aureus M838-17 (MRSA) and Gram-negative bacteria E. coli E423-17, E416-7 (ampC), P. aeruginosa E411-17, PA01, K. pneumoniae E406-17, ATCC13883, and A. baumannii B26-16. Bacteria were cultivated in tryptic soy broth (TSB) from BD Bioscience.
(§3) The antibacterial activity of peptides was evaluated using a standard broth microdilution protocol with minor modifications (Mishra, et al. (2017) Acta Biomater., 49:316-328). In brief, logarithmic phase bacterial cultures (i.e., optical density at 600 nm≈0.5) were diluted to 0.001 OD and aliquoted 90 μL per well into a 96-well polystyrene microplate. Added 10 μL peptides per well with various concentrations, plates were incubated at 37° C., overnight. Post incubation the plates are read at 630 nm using a ChroMate® Microplate Reader (GMI). […] To study the influence of medium conditions on the antimicrobial activity of peptides against S. aureus USA300 at different pHs (6.8, 7.2, and 8.0), 150 mM sodium chloride (NaCl), 5-10% of human serum, mouse plasma, and peritoneal fluid were included into the assays.

P. aeruginosa PAO1 = format: cell-based, Pseudomonas aeruginosa; conditions: PAO1
Procedure: as §1, §2, §3

S. aureus USA300 = assay: microbe, parasite or virus in culture; format: cell-based, Staphylococcus aureus; conditions: for MIC S. aureus USA 300 / MIC against S. aureus: USA300
From the text: The bacterial strains used include the Gram-positive strains Staphylococcus aureus USA300 LAC, S. epidermidis 1457, and Bacillus subtilis 168, as well as the Gram-negative isolates Escherichia coli K12 and Acinetobacter baumannii B2367-12. Additional, drug resistance strains include Gram-positive Enterococcus faecium V286-17 (VRE) and S. aureus M838-17 (MRSA) and Gram-negative E. coli E423-17, E. coli E416-17 (ampC), and P. aeruginosa E411-17. Bacteria were cultivated in tryptic soy broth (TSB) (BD Bioscience, MD).
as §1, §2, §3

[1] = test system: human red blood cells (hRBCs); assay: Hemolytic assay; format: cell-based
Procedure: Briefly, human red blood cells (hRBCs) were washed three times with phosphate buffer saline (PBS) and diluted to a 2% solution (v/v). After peptide treatment, incubation at 37° C. for one hour, and centrifugation at 5000 rpm for 10 minutes, aliquots of the supernatant were carefully transferred to a fresh 96-well microplate. The amount of hemoglobin released was measured at 545 nm. The percent lysis was calculated by assuming 100% release when human blood cells were treated with 2% Triton™ X-100, and 0% release when incubated with PBS buffer. The peptide concentration that caused 50% lysis of hRBCs is defined as HL50. The cell selectivity index (CSI) was calculated as the ratio between HL50 and MIC of the corresponding peptide against a select pathogenic species.
Hemolytic assays of peptides were performed as described (Mishra, et al. (2017) Acta Biomater., 49:316-328). Briefly, human red blood cells (hRBCs) obtained from UNMC Blood Bank. The blood washed 3× with isotonic saline (0.9% NaCl) and diluted to 2% blood cells (v/v). Peptide horine and verine at various concentrations were added into the 2% blood cells and incubated at 37° C. for 1 hour. Post incubation the plates were spun at 2000 rpm for 10 minutes, aliquots of the supernatant were carefully transferred to a fresh 96-well microplate. The amount of cells lysed is proportional to the hemoglobin released and measured at 545 nm using a ChroMate® microplate reader. The percent lysis was calculated by assuming 100% release when human blood cells were treated with 1% Triton™ X-100, and 0% release when incubated with PBS. The peptide concentration that caused 50% lysis of hRBCs is defined as HL50.

E. coli ATCC 25922 = format: cell-based, Escherichia coli; conditions: ATCC 25922
Procedure: as §1, §3

Row | SMILES | MIC K. pneumonia ATCC 13883 (K. pneumoniae ATCC 13883) | MIC P. aeruginosa PAO1 (P. aeruginosa PAO1) | MIC S. aureus USA 300 (S. aureus USA300) | HL50 [1] | MIC E. coli ATCC 25922 (E. coli ATCC 25922) | MIC K. pneumoniae (K. pneumoniae ATCC 13883) | MIC against S. aureus (S. aureus USA300) | Antimicrobial activity (S. aureus USA300; at 25 μM)
1 | CC(C)C[C@H](NC(=O)[C@H](CC(C)C)NC(=O)[C@H](CCCCN)NC(=O)CNC(=O)[C@H](CC(C)C)NC(=O)[C@H](CO)NC(=O)[C@H](CO)NC(=O)[C@H](CC(C)C)NC(=O)[C@H](CC(C)C)NC(=O)CN)C(N)=O [DFT525, GLLS--SL-GKLL] (H-GLLSSLGKLL-NH2; N-terminus and C-terminus assumed) | >25 µM | >25 µM | >25 µM | >300 µM | >25 µM |  |  | 
2 | CC(C)C[C@H](NC(=O)[C@H](CC(C)C)NC(=O)[C@H](CCCCN)NC(=O)CNC(=O)[C@H](CC(C)C)NC(=O)[C@H](CO)NC(=O)[C@H](CO)NC(=O)[C@H](CC(C)C)NC(=O)CN)C(N)=O [DFT526, GL-S--SL-GKLL] (H-GLSSLGKLL-NH2; N-terminus and C-terminus assumed) | >25 µM | >25 µM | >25 µM | >300 µM | >25 µM |  |  | 
3 | CC(C)C[C@H](NC(=O)[C@H](CC(C)C)NC(=O)[C@H](CCCCN)NC(=O)CNC(=O)[C@H](CC(C)C)NC(=O)[C@H](C)NC(=O)[C@H](CCCCN)NC(=O)[C@H](CC(C)C)NC(=O)[C@H](C)NC(=O)[C@H](CO)NC(=O)[C@H](CC(C)C)NC(=O)[C@H](C)NC(=O)CN)C(N)=O [DFT528, GALSALKALGKLL] (H-GALSALKALGKLL-NH2; N-terminus assumed) |  | >25 µM | 25 µM (≈ 31.3 µg/mL) | >50 µM | 25 µM (≈ 31.3 µg/mL) | >25 µM | 12.5 to 25 µM | 
4 | CC(C)C[C@H](NC(=O)[C@H](C)NC(=O)[C@H](CCCCN)NC(=O)CNC(=O)[C@H](CC(C)C)NC(=O)[C@H](C)NC(=O)[C@H](CCCCN)NC(=O)[C@H](CC(C)C)NC(=O)[C@H](C)NC(=O)[C@H](CO)NC(=O)[C@H](CC(C)C)NC(=O)[C@H](CC(C)C)NC(=O)CN)C(N)=O [DFT529, GLLSALKALGKAL] (H-GLLSALKALGKAL-NH2; N-terminus assumed) |  | >25 µM | 75 µM (≈ 94 µg/mL) | >50 µM | 25 µM (≈ 31.3 µg/mL) | >25 µM | 12.5 to 25 µM | 
5 | CC(C)C[C@H](NC(=O)[C@H](C)NC(=O)[C@H](CCCCN)NC(=O)CNC(=O)[C@H](CC(C)C)NC(=O)[C@H](C)NC(=O)[C@H](CCCCN)NC(=O)[C@H](CC(C)C)NC(=O)[C@H](C)NC(=O)[C@H](CO)NC(=O)[C@H](CC(C)C)NC(=O)[C@H](C)NC(=O)CN)C(N)=O [DFT530, GALSALKALGKAL] (H-GALSALKALGKAL-NH2; N-terminus assumed) |  | >25 µM | >25 µM | >100 µM | >25 µM | >25 µM |  | inactive
